Data reported in US20250082714A1, “METHODS AND COMPOSITIONS FOR THE TREATMENT OR PREVENTION OF MUSCULAR DYSTROPHY” (Stealth BioTherapeutics Inc., priority 2021, published 2025).
Values joined by “and” are separate entries in the source; they are usually repeats but may differ in a detail not shown here. Equal values may be shown once. Where a SMILES comes first, the peptide text is derived from it. [ ]: non-standard residue; d: D form. Dmt = Cc1cc(O)cc(C)c1C[C@H](N)C(=O)O

Tests used:
[1] = tested on: C57BL/10ScSn-Dmdmdx/J (mdx) mice; test: H&E inflammation analysis of TA muscle sections; format: in vivo, mouse; details: as compared to the mdx vehicle group; PMO 125 mg/kg, MTP-131 5 mg/kg
Description: (§1) Treatment groups. Four-week-old C57BL/10ScSnJ (stock #000476) and C57BL/10ScSn-Dmdmdx/J mice (stock #001801) were sourced from Jackson Laboratory in Bar Harbor, USA and sorted into a total of five treatment groups (Table 1). The C57BL/10ScSnJ (BL10) mice received vehicle #1 (1×PBS) and vehicle #2 (0.9% Saline). Of the C57BL/10ScSn-Dmdmdx/J (mdx) groups, one received vehicle #1(1×PBS) and vehicle #2 (0.9% Saline), the second group was treated with PMO (125 mg/kg) and vehicle #2 (0.9% Saline), the third group was treated with vehicle #1 (1×PSB) and MTP-131 (5 mg/kg), and the final group was treated with both PMO (125 mg/kg) and MTP-131 (5 mg/kg). PMO compound and the respective vehicle (1×PBS) was administered weekly via retro-orbital injection. MTP-131 compound and the vehicle (0.9% saline) were administered daily via intraperitoneal (IP) injection. Treatment was for a total of 7 weeks.
Histological analysis—H&E—Inflammation Analysis. TA muscle (n=8/group) was sectioned at 10 μm (2 sections/slide) and stored at −80° C. until the staining was performed. Slides were stained with Hematoxylin & Eosin (H&E) and were analyzed for percent inflammation. An inflammatory focus (pl. foci) was measured by counting 10 or more inflammatory cells in a single cluster. These foci areas were measured in mm2 and then compared to the tissue's total area, from which a percentage was calculated. […]

[2] = tested on: dystrophin; test: Western blot of dystrophin in tibialis anterior (TA) muscle of treated mdx mice; format: in vivo, mouse (C57BL/10ScSn-Dmdmdx/J; details: 7 weeks; for % Dystrophin Average: average of treatment group (n=14-15 mdx mice); for % Dystrophin: individual mdx mouse
Description: as §1
Experimental endpoint measures. Upon arrival from Jackson laboratory to the Life Science Research Institute (LSRI) animal facility in Halifax, Canada, 4 week-old BL10 and mdx mice were subjected to a one-week acclimation period to the new facility, after which they were weighed, ear-tagged, and randomized. Once randomized, the animals were treated daily for 7 weeks. During treatment, mice were visually assessed for health (altered food and water consumption, abnormal breathing, circling, eye/hair matting and any other features of abnormal appearance). All treatment groups followed the experimental design outlined in Table 2. In vitro force measurements and takedowns were performed throughout weeks 6-7. Takedowns were staggered to accommodate the in vitro force schedule. Scheduling was representative of the treatment groups.
Treatment preparation—PMO. The phosphorodiamidate morpholino oligomer (PMO) was sourced from Gene Tools, LLC. The PMO used was mExon 23(+07-18) (5′-[…]-3′) (SEQ ID NO: 1) against the boundary sequences of exon and intron 23 of the mouse dystrophin gene. The PMO was prepared fresh weekly by diluting the compound in 1×PBS to the stock concentration of 100 mg/ml. Any remaining compound was stored at 4° C.
Treatment preparation—MTP-131. MTP-131 dosing formulation was prepared weekly and filtered through a […] polyether sulfone (PES) filter. Because MTP-131 is extremely hygroscopic it was conditioned before use and weighed immediately after. If possible, MTP-131 was weighed in a low moisture environment (<20% RH). Prior to use, MTP-131 was removed from the refrigerator. The un-opened bottle was placed in a low moisture environment (<20% RH) and allowed to equilibrate at room temperature for at least 2 hours. Quickly, an aliquot was weighed for use without returning any un-used standard to the bottle and the bottle was immediately tightly capped. Immediately after use, the inside of the bag was wiped with a paper towel to remove any moisture, and the reference bottle (tightly capped) was placed back into the aluminum bag, re-sealed and placed back in 2-8° C. storage.
Treatment administration—PMO. PMO compound was delivered weekly via retro-orbital intravenous injection using a 28-gauge needle. Mice were gently removed from their cage and anesthetized using 5% isoflurane and maintained with 1.5-2% isoflurane. Once the pedal reflex was absent, the mouse was positioned on its side, and loose skin behind the shoulders and ears pinned back using the thumb and middle finger of the non-dominant hand. The skin surrounding the eye was drawn back using the index finger, allowing the eye to protrude slightly. The needle was inserted carefully at a 30° angle with the bevel away from the eye, lateral to the medial canthus, through the conjunctival membrane. Once in the retro-orbital sinus, the compound was slowly injected (10 μl/5-10 seconds). The needle was then carefully removed to prevent injury and leakage. If more than 20 μl of leakage occurred, the injectable was aspirated back into the syringe and injected again. […]

[3] = PMO 125 mg/kg weekly, MTP-131 5 mg/kg daily
[4] = Run 1, Gel #5, PMO 125 mg/kg weekly retro-orbital, MTP-131 5 mg/kg daily IP
[5] = Run 1, Gel #6, PMO 125 mg/kg weekly, MTP-131 5 mg/kg daily
[6] = Run 2, Gel #7, PMO 125 mg/kg weekly, MTP-131 5 mg/kg daily
[7] = Run 2, Gel #8, PMO 125 mg/kg weekly, MTP-131 5 mg/kg daily
[8] = Run 3, Gel #9, PMO 125 mg/kg weekly, MTP-131 5 mg/kg daily
[9] = Run 3, Gel #10, PMO 125 mg/kg weekly, MTP-131 5 mg/kg daily

| Compound | inflammation in the tibialis anterior muscles [1] | % Dystrophin Average [2, 3] [%] | % Dystrophin [2, 4] | % Dystrophin [2, 5] | % Dystrophin [2, 6] | % Dystrophin [2, 7] | % Dystrophin [2, 8] | % Dystrophin [2, 9] | % Dystrophin ([2]; summary by treatment group, PMO 125 mg/kg weekly, MTP-131 5 mg/kg daily) |
| --- | --- | --- | --- | --- | --- | --- | --- | --- | --- |
| Cc1cc(O)cc(C)c1C[C@H](NC(=O)[C@H](N)CCCNC(=N)N)C(=O)N[C@@H](CCCCN)C(=O)N[C@@H](Cc1ccccc1)C(N)=O [MTP-131, H-D-Arg-2′6′-Dmt-Lys-Phe-NH2] (H-[dR][Dmt]KF-NH2) | reduced | 0.70 | 0.3% and 0.4% and 0.6% | 1.0% and 1.2% | 0.8% | 0.8% | 1.0% | 0% | 1.00% (3×) and 1.10% and 0.00% (2×) and 0.80% (4×) and 0.30% and 0.40% and 0.60% and 1.20% |
| PMO: phosphorodiamidate morpholino oligomer mExon 23(+07-18), 5′-GGCCAAACCTCGGCTTACCTGAAAT-3′ (SEQ ID NO: 1), against exon/intron 23 boundary of mouse dystrophin gene; Gene Tools (all phosphorodiamidate morpholino (PMO)) [reference compound] | reduced | 3.66 | 6.0% and 4.2% | 4.7% and 2.7% | 1.2% and 1.7% and 7.4% | 3.2% and 1.4% | 1.4% and 3.9% | 3.1% and 2.9% and 7.2% | – |
